# Data as given in PubChem BioAssay (NCI).
#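 All cell lines were grown in 96-well plates and treated with compound for 48 hours. GI50 marks 50% less growth. TGI marks complete inhibition of growth.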
# Tests used:
# Experiment in all cases: DTP human tumour cell line panel, 48 h
# [1] = tested on: MALME-3M melanoma
# [2] = tested on: IGROV1 ovarian
# [3] = tested on: PC-3 prostate
# [4] = tested on: CCRF-CEM leukemia
# [5] = tested on: MDA-MB-435
# [6] = tested on: SR leukemia
# [7] = tested on: OVCAR-5 ovarian
# [8] = tested on: NCI-H522 lung
# [9] = tested on: SK-OV-3 ovarian
# [10] = tested on: OVCAR-3 ovarian
# [11] = tested on: HOP-92 NSCLC
# [12] = tested on: OVCAR-4 ovarian
# [13] = tested on: A498 renal
# [14] = tested on: HCT-15 colon
# [15] = tested on: SF-295 CNS
# [16] = tested on: HL-60(TB) leukemia
# [17] = tested on: SNB-19 CNS
# [18] = tested on: RPMI-8226 leukemia
# [19] = tested on: K-562 leukemia
# [20] = tested on: U251 CNS
# [21] = tested on: SNB-75 CNS
# [22] = tested on: HCC-2998 colon
# [23] = tested on: CAKI-1 renal
# [24] = tested on: SK-MEL-2 melanoma
# [25] = tested on: HOP-62 NSCLC
# [26] = tested on: ACHN renal
# [27] = tested on: KM12 colon
# [28] = tested on: MCF7 breast
# [29] = tested on: MOLT-4 leukemia
# [30] = tested on: LOX IMVI melanoma
# [31] = tested on: HS 578T breast
# [32] = tested on: HT29 colon
# [33] = tested on: A549 NSCLC
# [34] = tested on: 786-0 renal
# [35] = tested on: SF-539 CNS
# [36] = tested on: DU-145 prostate
# [37] = tested on: UO-31 renal
# [38] = tested on: OVCAR-8 ovarian
# [39] = tested on: NCI-H226 lung
# [40] = tested on: HCT-116 colon
# [41] = tested on: NCI-H460 lung
# [42] = tested on: UACC-257 melanoma
# [43] = tested on: EKVX NSCLC
# [44] = tested on: SF-268 CNS
# [45] = tested on: NCI/ADR-RES ovarian
# [46] = tested on: T-47D breast
# [47] = tested on: SN12C renal
# [48] = tested on: SW-620 colon
# [49] = tested on: UACC-62 melanoma
# [50] = tested on: MDA-MB-231 breast
# [51] = tested on: BT-549 breast
# [52] = tested on: SK-MEL-28 melanoma
# [53] = tested on: RXF 393 renal
# [54] = tested on: M14 melanoma
# [55] = tested on: NCI-H23 lung
# [56] = tested on: TK-10 renal
structure (smiles),measurement,setting,value
CC(C)[C@]12O[C@H]1[C@@H]1O[C@]13[C@]1(O[C@H]1C[C@H]1c4c(C(=O)c5ccccc5)oc(OC(=O)c5ccccc5)c4CC[C@@]13C)[C@@H]2O,GI50,[1],18.9 nM
same,TGI,[1],49.8 nM
same,GI50,[2],28 nM
same,TGI,[2],9740 nM
same,GI50,[3],35.8 nM
same,GI50,[4],42.9 nM
same,GI50,[5],15.1 nM
same,TGI,[5],36.6 nM
same,GI50,[6],30.3 nM
same,GI50,[7],40.1 nM
same,TGI,[7],> 100000 nM
same,GI50,[8],16.9 nM
same,TGI,[8],91.3 nM
same,GI50,[9],35.1 nM
same,TGI,[9],> 100000 nM
same,GI50,[10],24.4 nM
same,TGI,[10],154 nM
same,GI50,[11],64.9 nM
same,GI50,[12],31.3 nM
same,TGI,[12],> 88400 nM
same,GI50,[13],17.9 nM
same,TGI,[13],61.4 nM
same,GI50,[14],29.1 nM
same,TGI,[14],> 100000 nM
same,GI50,[15],65.3 nM
same,TGI,[15],2750 nM
same,GI50,[16],23 nM
same,TGI,[16],> 100000 nM
same,GI50,[17],176 nM
same,TGI,[17],36600 nM
same,GI50,[18],< 14.8 nM
same,TGI,[18],1060 nM
same,GI50,[19],21.9 nM
same,GI50,[20],86.3 nM
same,TGI,[20],> 100000 nM
same,GI50,[21],22.4 nM
same,TGI,[21],170 nM
same,GI50,[22],37.8 nM
same,TGI,[22],355 nM
same,GI50,[23],18.3 nM
same,TGI,[23],50200 nM
same,GI50,[24],25.2 nM
same,TGI,[24],78.1 nM
same,GI50,[25],27.8 nM
same,TGI,[25],735 nM
same,GI50,[26],17.4 nM
same,TGI,[26],20700 nM
same,GI50,[27],226 nM
same,TGI,[27],3780 nM
same,GI50,[28],13.9 nM
same,TGI,[28],19900 nM
same,GI50,[29],23.6 nM
same,TGI,[29],> 31600 nM
same,GI50,[30],14.4 nM
same,TGI,[30],14800 nM
same,GI50,[31],30.3 nM
same,TGI,[31],996 nM
same,GI50,[32],17.2 nM
same,TGI,[32],> 38000 nM
same,GI50,[33],59 nM
same,TGI,[33],> 62400 nM
same,GI50,[34],35.2 nM
same,TGI,[34],5220 nM
same,GI50,[35],28.2 nM
same,TGI,[35],115 nM
same,GI50,[36],20.4 nM
same,TGI,[36],15300 nM
same,GI50,[37],22.3 nM
same,TGI,[37],10500 nM
same,GI50,[38],49.4 nM
same,TGI,[38],> 50200 nM
same,GI50,[39],25 nM
same,TGI,[39],554 nM
same,GI50,[40],14.2 nM
same,TGI,[40],> 100000 nM
same,TGI,[41],11400 nM
same,GI50,[42],16.8 nM
same,TGI,[42],62.8 nM
same,GI50,[43],35.9 nM
same,TGI,[43],1110 nM
same,GI50,[44],33.8 nM
same,TGI,[44],1600 nM
same,GI50,[45],41.8 nM
same,TGI,[45],3420 nM
same,GI50,[46],28.1 nM
same,TGI,[46],916 nM
same,GI50,[47],24.9 nM
same,TGI,[47],52200 nM
same,GI50,[48],17.9 nM
same,TGI,[48],3890 nM
same,GI50,[49],13.4 nM
same,TGI,[49],33.3 nM
same,GI50,[50],46.3 nM
same,TGI,[50],43700 nM
same,GI50,[51],18.8 nM
same,TGI,[51],95.1 nM
same,GI50,[52],18.4 nM
same,TGI,[52],61.2 nM
same,GI50,[53],19.6 nM
same,TGI,[53],49.7 nM
same,GI50,[54],23.6 nM
same,TGI,[54],68.8 nM
same,GI50,[55],< 10.5 nM
same,TGI,[55],111 nM
same,GI50,[56],28.2 nM
same,TGI,[56],27100 nM
